The subject of the assay is BT-474. In words: Antitumor activity against human BT474 cells xenografted in nude-foxn1nu mouse assessed as reduction in tumor growth at 3 mg/kg after 14 days relative to control. Type of assay: functional. Details: scale not given: the % may be the effect or the level left. (Xenograft models place foreign cells or tissue in a host animal.)

Here are results for one compound from ChEMBL document CHEMBL1158487, “Small molecule chloropyramine hydrochloride (C4) targets the binding site of focal adhesion kinase and vascular endothelial growth factor receptor 3 and suppresses breast cancer growth in vivo” (J Med Chem, 2009).

On to `COc1cccc2c1C(=O)c1c(O)c3c(c(O)c1C2=O)C[C@@](O)(C(=O)CO)C[C@@H]3O[C@H]1C[C@H](N)[C@H](O)[C@H](C)O1` [DOXORUBICIN], for which the Activity was determined as 60%.
